How the values were obtained:
[1] = tested on: E. coli S30 coupled in vitro transcription-translation system; assay: Self-methylation of M.EcoRI gene in coupled in vitro transcription/translation, resistance to cleavage by EcoRI; type: biochemical; conditions: translation inhibited, in the presence of puromycin
Description: The PCR-amplified DNA-methylases genes described above are expressed in a prokaryotic in vitro coupled transcription/translation system designed for linear templates (Lesley et al., 1991). A commercial preparation of this system is used (E. coli S30 Extract System for Linear Templates; Promega) supplemented with T7 RNA polymerase and S-adenosyl methionine (SAM) at 80 μM concentration.
Methylation is assayed by measuring the resistance of DNA fragments labelled with DIG and biotin to cleavage by the cognate restriction enzyme using the Boehringer-Mannheim DIG-Biotin ELISA or with radioactively labelled DNA fragments and streptavidin coated magnetic beads. […] The absorbance (at 450 minus 650 nm) is measured after quenching with 0.5M H2SO4 (130 μl/well).
For the radioactive assay, the plasmids and PCR fragments described above are amplified by PCR using primers LMB2-Biotin (SEQ. ID. No. 9) and LMB3 and α-P^32-CTP to give P^32-labelled DNA fragments labelled at one end by biotin and which carry the T7 RNA polymerase promoter, the phage T7 gene 10 translational start site, the methyltransferase gene and the relevant M/R sites. […] The amount of radioactively-labelled DNA on the beads and in the supernatants is determined by scintillation. […]

[2] = tested on: coupled transcription-translation reaction; assay: Production of active DHFR in a 2 hour coupled transcription-translation reaction; type: biochemical, E. coli; conditions: 0.1 mM, alone or in combination; 2 hour reaction

Compound | resistance to cleavage by EcoRI [1] | inhibition of the production of active DHFR [2]
COc1ccc(C[C@H](N)C(=O)N[C@H]2[C@@H](O)[C@H](n3cnc4c(N(C)C)ncnc43)O[C@@H]2CO)cc1 [puromycin] | not observed | 
NADPH |  | does not cause any inhibition

Reference: patent publication US7138233B2, “IN vitro sorting method” (Medical Research Council, priority 1997, dated 2006)
